Measurements as given in patent publication US20240189235A1, “CATIONIC LIPIDS AND USES THEREOF” (MELLO BIOTECH TAIWAN CO., LTD., priority 2022, published 2024).

Tested on: Cy5-mir302a-siRNA
Assay: Encapsulation efficiency of LNPs for small RNAs (RiboGreen fluorescence)
Type: physicochemical
Settings: Table 1 in words
Method: To produce the present composition, the present cationic lipids (compound 6 or 22), cholesterol, DEG-PEG 2000, and distearoylphosphatidylcholine (DSPC) were fully mixed in ethanol at a molar ratio of 50:38.5:1.5:10, and the total volume was brought to 500 μL, thereby producing a liquid formulation of lipid nanoparticles (LNPs). As for control group, D-lin-MC3-DMA (MC30), an ionizable amino lipid that conventionally used in LNPs preparation, was mixed with cholesterol, DEG-PEG 2000, and DSPC at the same molar ratio as the present LNPs. […]
The encapsulation ratio of liposomes for encapsulating miRNAs or siRNAs was determined by fluorescence reader (Infinite F200 Pro) with the aid of RNA quantification kit containing a fluorescent dye (RiboGreen). […] The cationic lipid-RNA complexes (typically with a total volume of 50 μL for each sample well) were then mixed with the reagent from the RNA quantification kit in each well. […] The amount of miRNAs or siRNAs were quantified by interpolating their […] at 535 nm to that of the standard curve, and the encapsulation efficiency (EE) was calculated by the following formula: […]
where Wt is the total amount of miRNAs or siRNAs released in the LNPs lysis suspension, and Wi is the total quantity of miRNAs or siRNAs added initially during preparation. […]

| Structure (SMILES) | Liposome formation and siRNA encapsulation |
| --- | --- |
| CCCCC/C=C\C/C=C\CCCCCCCC(=O)NCC(=O)OC(COC(=O)CN)COC(=O)CN [Compound 6, 2-(2-((9Z,12Z)-octadeca-9,12-dienamido)acetoxy)propane-1,3-diyl bis(2-aminoacetate)] | successfully formed liposomes and encapsulated siRNAs therein |
| CCCCCC/C=C\CCCCCCCC(=O)NCC(=O)OCC(COC(=O)CN)OC(=O)CNC(=O)CCCCCCC/C=C\CCCCCC (centres unmarked) [Compound 22, (Z)-3-(2-aminoacetoxy)propane-1,2-diyl bis(2-((Z)-hexadec-9-enamido)acetate)] | successfully formed liposomes and encapsulated siRNAs therein |
